System: carrageenin pleurisy
Test: modified carrageenin pleurisy assay (reduction in accumulation of exudate volume and leukocytes)
Assay type: in vivo
Settings: Dose 100 (unit not given)
From the text: The anti-inflammatory activity of these compounds was established by using a modification of the carrageenin pleurisy assay described in Vinegar et al. Proc. Soc. Exp. Biol. Med. 143:711 (1973).

SMILES | % Inhibition Cells (leukocyte accumulation) [%] | % Inhibition Volume exudates [%]
CCCCC1C(=O)N(c2ccccc2)N(c2ccccc2)C1=O [Phenylbutazone, reference compound] | 13 | 59
N#CCCN(N)c1nc2ccccc2o1 [3-[1-(2-Benzoxazolyl)hydrazino]propanenitrile] | 39 | 61

System: dermal Arthus reaction
Test: reverse passive Arthus reaction test (Type III hypersensitivity), reduction of dermal lesion
Assay type: in vivo, Male Sprague-Dawley rats
Settings: 100 mg/kg oral, 30 min before intradermal Anti-B.S.A.; lesion measured four hours later; 4 rats per group
Method: Proc. 35, 774 (1976). Each compound was administered orally to a group of four animals.
The […] passive Arthus reaction test in rats is conducted as follows: Male Sprague-Dawley rats weighing approximately 130-160 g. are used, 4 rats per group. All animals are injected intravenously with 0.5 ml. 0.075% Bovine Serum Albumin (B.S.A.)+2% Evans Blue solution. Each rat then receives an oral dose of drug; one drug is administered per group.
Thirty minutes subsequent to drug dosing, each animal is injected intradermally with 0.05 ml. 1.44% Anti-B.S.A. into the dorsal skin. Four hours later the animals are sacrificed, the dorsal skin reflexed, and the lesion excised. Two perpendicular diameters of each lesion are measured. The average diameters of the lesions from the treated groups are compared with the average diameters from the control group to determine any drug effect.

SMILES | % Inhibition of lesion of dermal Arthus reaction
N#CCCN(N)c1nc2ccccc2s1 [3-[1-(2-benzthiazolyl)hydrazino]propanenitrile] | 59%
CCCCC1C(=O)N(c2ccccc2)N(c2ccccc2)C1=O [Phenylbutazone, reference compound] | inactive

Same assay, conditions: Rattus norvegicus, 4 h; 100 mg/kg oral, 30 min before intradermal Anti-B.S.A.; lesion measured four hours later; 4 rats per group

SMILES | inhibition in vivo at 100 mg/kg [%]
N#CCCN(N)c1nc2cccc(Cl)c2o1 [3-[1-(7-Chloro-2-benzoxazolyl)hydrazino]propanenitrile] | 48
N#CCCN(N)c1nc2cc(C(F)(F)F)ccc2o1 [3-[1-(5-trifluoromethyl-2-benzoxazolyl)hydrazino]propanenitrile] | 48
CC(CC#N)N(N)c1nc2ccccc2o1 (stereo not shown) [3-[1-(2-benzoxazolyl)hydrazino]-3-methylpropanenitrile] | 48
Cc1cc2oc(N(N)CCC#N)nc2cc1Cl [3-[1-(6-methyl-5-chloro-2-benzoxazolyl)hydrazino]propanenitrile] | 76
Cc1ccc2oc(N(N)CCC#N)nc2c1 [3-[1-(5-methyl-2-benzoxazolyl)hydrazino]propanenitrile] | 70
Cc1ccc2nc(N(N)CCC#N)oc2c1 [3-[1-(6-methyl-2-benzoxazolyl)hydrazino]propanenitrile] | 58
N#CCCN(N)c1nc2cc(C#N)ccc2o1 [3-[1-(5-cyano-2-benzoxazolyl)hydrazino]propanenitrile] | 66
Cc1cc2oc(N(N)CCC#N)nc2c(C)c1C [3-[1-(4,5,6-Trimethyl-2-benzoxazolyl)hydrazino]propanenitrile] | 59
Cc1cccc2nc(N(N)CCC#N)oc12 [3-[1-(7-methyl-2-benzoxazolyl)hydrazino]propanenitrile] | 47
CC(C#N)CN(N)c1nc2ccccc2o1 (stereo not shown) [3-[1-(2-benzoxazolyl)hydrazino]-2-methylpropanenitrile] | 45
COc1ccc2oc(N(N)CCC#N)nc2c1 [3-[1-(5-methoxy-2-benzoxazolyl)hydrazino]propanenitrile] | 67
N#CCCN(N)c1nc2cc(CS)ccc2o1 [3-[1-(5-mercaptomethyl-2-benzoxazolyl)hydrazino]propanenitrile] | 40
Cc1cc(C)c2oc(N(N)CCC#N)nc2c1C [3-[1-(4,5,7-Trimethyl-2-benzoxazolyl)hydrazino]propanenitrile] | 55
N#CCCN(N)c1nc2ccccc2o1 [3-[1-(2-Benzoxazolyl)hydrazino]propanenitrile] | 68
N#CCCN(N)c1nc2cc(F)ccc2o1 [3-[1-(5-fluoro-2-benzoxazolyl)hydrazino]propanenitrile] | 55
Cc1cc(C)c2oc(N(N)CCC#N)nc2c1 [3-[1-(5,7-dimethyl-2-benzoxazolyl)hydrazino]propanenitrile] | 59
